Data taken from ChEMBL document CHEMBL4308841, “Synthesis, in vitro antiproliferative activity, and kinase inhibitory effects of pyrazole-containing diarylureas and diarylamides” (Eur J Med Chem, 2018).

How the values were obtained:
SK-OV-3 = experiment: Growth inhibition of human SKOV3 cells incubated for 48 hrs by sulforhodamine B assay; format: functional, cell-based; conditions: SK-OV-3, 48 h
BT-549 = experiment: Growth inhibition of human BT549 cells incubated for 48 hrs by sulforhodamine B assay; format: functional, cell-based; conditions: BT-549, 48 h
NCI-H322M [1] = experiment: Growth inhibition of human NCI-H322M cells assessed as cell growth at 0.01 uM incubated for 48 hrs by sulforhodamine B assay relative to control; format: functional; conditions: read-out: Activity
NCI-H522 [2] = experiment: Growth inhibition of human NCI-H522 cells assessed as cell growth at 0.01 uM incubated for 48 hrs by sulforhodamine B assay relative to control; format: functional; conditions: NCI-H522, 48 h, read-out: Activity
SW-620 [3] = experiment: Growth inhibition of human SW620 cells assessed as cell growth at 0.01 uM incubated for 48 hrs by sulforhodamine B assay relative to control; format: functional; conditions: SW-620, 48 h, read-out: Activity
LOX IMVI [4] = experiment: Growth inhibition of human LOXIMVI cells assessed as cell growth at 0.01 uM incubated for 48 hrs by sulforhodamine B assay relative to control; format: functional; conditions: read-out: Activity
SK-MEL-5 = experiment: Growth inhibition of human SK-MEL-5 cells assessed as cell growth at 0.01 uM incubated for 48 hrs by sulforhodamine B assay relative to control; format: functional; conditions: SK-MEL-5, 48 h, read-out: Activity
UACC-257 = experiment: Growth inhibition of human UACC257 cells assessed as cell growth at 0.01 uM incubated for 48 hrs by sulforhodamine B assay relative to control; format: functional; conditions: UACC-257, 48 h, read-out: Activity
UACC-62 = experiment: Growth inhibition of human UACC62 cells assessed as cell growth at 0.01 uM incubated for 48 hrs by sulforhodamine B assay relative to control; format: functional; conditions: UACC-62, 48 h, read-out: Activity
786-0 [5] = experiment: Growth inhibition of human 786-0 cells assessed as cell growth at 0.01 uM incubated for 48 hrs by sulforhodamine B assay relative to control; format: functional; conditions: 786-0, 48 h, read-out: Activity
PC-3 = experiment: Growth inhibition of human PC3 cells assessed as cell growth at 0.01 uM incubated for 48 hrs by sulforhodamine B assay relative to control; format: functional; conditions: PC-3, 48 h, read-out: Activity
DU-145 [6] = experiment: Growth inhibition of human DU145 cells assessed as cell growth at 0.01 uM incubated for 48 hrs by sulforhodamine B assay relative to control; format: functional; conditions: DU-145, 48 h, read-out: Activity
MDA-MB-231 = experiment: Growth inhibition of human MDA-MB-231 cells assessed as cell growth at 0.01 uM incubated for 48 hrs by sulforhodamine B assay relative to control; format: functional; conditions: MDA-MB-231, 48 h, read-out: Activity
MDA-MB-468 = experiment: Growth inhibition of human MDA-MB-468 cells assessed as cell growth at 0.01 uM incubated for 48 hrs by sulforhodamine B assay relative to control; format: functional; conditions: MDA-MB-468, 48 h, read-out: Activity
NCI-H322M [7] = experiment: Growth inhibition of human NCI-H322M cells assessed as cell growth at 0.1 uM incubated for 48 hrs by sulforhodamine B assay relative to control; format: functional; conditions: read-out: Activity
NCI-H460 = experiment: Growth inhibition of human NCI-H460 cells assessed as cell growth at 0.1 uM incubated for 48 hrs by sulforhodamine B assay relative to control; format: functional; conditions: NCI-H460, 48 h, read-out: Activity
LOX IMVI [8] = experiment: Growth inhibition of human LOXIMVI cells assessed as cell growth at 0.1 uM incubated for 48 hrs by sulforhodamine B assay relative to control; format: functional; conditions: read-out: Activity
786-0 [9] = experiment: Growth inhibition of human 786-0 cells assessed as cell growth at 0.1 uM incubated for 48 hrs by sulforhodamine B assay relative to control; format: functional; conditions: 786-0, 48 h, read-out: Activity
A498 = experiment: Growth inhibition of human A498 cells assessed as cell growth at 0.1 uM incubated for 48 hrs by sulforhodamine B assay relative to control; format: functional; conditions: A498, 48 h, read-out: Activity
COLO 205 = experiment: Growth inhibition of human COLO205 cells assessed as cell growth at 1 uM incubated for 48 hrs by sulforhodamine B assay relative to control; format: functional; conditions: COLO 205, 48 h, read-out: Activity
SW-620 [10] = experiment: Growth inhibition of human SW620 cells assessed as cell growth at 1 uM incubated for 48 hrs by sulforhodamine B assay relative to control; format: functional; conditions: SW-620, 48 h, read-out: Activity
SF-295 [11] = experiment: Growth inhibition of human SF295 cells assessed as cell growth at 1 uM incubated for 48 hrs by sulforhodamine B assay relative to control; format: functional; conditions: SF-295, 48 h, read-out: Activity
SNB-19 = experiment: Growth inhibition of human SNB19 cells assessed as cell growth at 1 uM incubated for 48 hrs by sulforhodamine B assay relative to control; format: functional; conditions: SNB-19, 48 h, read-out: Activity
SNB-75 [12] = experiment: Growth inhibition of human SNB75 cells assessed as cell growth at 1 uM incubated for 48 hrs by sulforhodamine B assay relative to control; format: functional; conditions: SNB-75, 48 h, read-out: Activity
OVCAR-5 = experiment: Growth inhibition of human OVCAR5 cells assessed as cell growth at 1 uM incubated for 48 hrs by sulforhodamine B assay relative to control; format: functional; conditions: OVCAR-5, 48 h, read-out: Activity
CAKI-1 = experiment: Growth inhibition of human Caki1 cells assessed as cell growth at 1 uM incubated for 48 hrs by sulforhodamine B assay relative to control; format: functional; conditions: CAKI-1, 48 h, read-out: Activity
DU-145 [13] = experiment: Growth inhibition of human DU145 cells assessed as cell growth at 1 uM incubated for 48 hrs by sulforhodamine B assay relative to control; format: functional; conditions: DU-145, 48 h, read-out: Activity
NCI-H522 [14] = experiment: Growth inhibition of human NCI-H522 cells assessed as cell growth at 100 uM incubated for 48 hrs by sulforhodamine B assay relative to control; format: functional; conditions: NCI-H522, 48 h, read-out: Activity
SF-295 [15] = experiment: Growth inhibition of human SF295 cells assessed as cell growth at 100 uM incubated for 48 hrs by sulforhodamine B assay relative to control; format: functional; conditions: SF-295, 48 h, read-out: Activity
SNB-75 [16] = experiment: Growth inhibition of human SNB75 cells assessed as cell growth at 100 uM incubated for 48 hrs by sulforhodamine B assay relative to control; format: functional; conditions: SNB-75, 48 h, read-out: Activity
M14 = experiment: Growth inhibition of human M14 cells assessed as cell growth at 100 uM incubated for 48 hrs by sulforhodamine B assay relative to control; format: functional; conditions: M14, 48 h, read-out: Activity
OVCAR-4 = experiment: Growth inhibition of human OVCAR4 cells assessed as cell growth at 100 uM incubated for 48 hrs by sulforhodamine B assay relative to control; format: functional; conditions: OVCAR-4, 48 h, read-out: Activity
SN12C = experiment: Growth inhibition of human SN12C cells assessed as cell growth at 100 uM incubated for 48 hrs by sulforhodamine B assay relative to control; format: functional; conditions: read-out: Activity
[17] = read-out: LC50 (the source's name)
[18] = read-out: pLC50 (the source's name) (converted)

`COc1cc(Cl)cc(-c2nn(-c3cccc(NC(=O)Nc4ccc(Cl)c(Cl)c4)c3)cc2-c2ccncc2)c1` was tested, and the GI50 (SK-OV-3; read-out: GI50) was 3.5 µM, the CC50 (SK-OV-3; [17]) was > 100 µM and the TGI (SK-OV-3; read-out: TGI) was 57 µM. The GI50 (SK-OV-3; read-out: pGI50 (converted)) was 3.63 µM, the CC50 (SK-OV-3; [18]) was > 100 µM and the TGI (SK-OV-3; read-out: pTGI (converted)) was 87.1 µM. For the same molecule, the GI50 (BT-549; read-out: GI50) was 2.52 µM, the CC50 (BT-549; [17]) was > 100 µM and the TGI (BT-549; read-out: TGI) was 62.5 µM. For the same molecule, the GI50 (BT-549; read-out: pGI50 (converted)) was 2.63 µM, the CC50 (BT-549; [18]) was > 100 µM and the TGI (BT-549; read-out: pTGI (converted)) was 8.32 µM. For the same molecule, the growth at 0.01 µM (NCI-H322M [1]) was 101%, the growth at 0.01 µM (NCI-H522 [2]) was 95% and the growth at 0.01 µM (SW-620 [3]) was 100%. It also gave a growth at 0.01 µM (LOX IMVI [4]) of 96%, a growth at 0.01 µM (SK-MEL-5) of 95% and a growth at 0.01 µM (UACC-257) of 96%. It also gave a growth at 0.01 µM (UACC-62) of 95%, a growth at 0.01 µM (786-0 [5]) of 100% and a growth at 0.01 µM (PC-3) of 96%. It also gave a growth at 0.01 µM (DU-145 [6]) of 101%, a growth at 0.01 µM (MDA-MB-231) of 109% and a growth at 0.01 µM (MDA-MB-468) of 95%. It also gave a growth at 0.1 µM (NCI-H322M [7]) of 90%, a growth at 0.1 µM (NCI-H460) of 100% and a growth at 0.1 µM (LOX IMVI [8]) of 94%. The growth at 0.1 µM (786-0 [9]) was 98%, the growth at 0.1 µM (A498) was 58% and the growth at 1 µM (COLO 205) was 91%. It also gave a growth at 1 µM (SW-620 [10]) of 93%, a growth at 1 µM (SF-295 [11]) of 70% and a growth at 1 µM (SNB-19) of 89%. For the same molecule, the growth at 1 µM (SNB-75 [12]) was 71%, the growth at 1 µM (OVCAR-5) was 87% and the growth at 1 µM (CAKI-1) was 79%. For the same molecule, the growth at 1 µM (DU-145 [13]) was 93%, the growth at 100 µM (NCI-H522 [14]) was -15% and the growth at 100 µM (SF-295 [15]) was -21%. It also gave a growth at 100 µM (SNB-75 [16]) of -3%, a growth at 100 µM (M14) of -36% and a growth at 100 µM (OVCAR-4) of -4%. For the same molecule, the growth at 100 µM (SN12C) was 5%.
In the case of `O=C(Nc1cccc(-n2cc(-c3ccncc3)c(-c3cc(O)cc(Cl)c3)n2)c1)c1cc(C(F)(F)F)cc(C(F)(F)F)c1`, the GI50 (SK-OV-3; read-out: GI50) is reported as 1.08 µM, the CC50 (SK-OV-3; [17]) is reported as > 100 µM and the TGI (SK-OV-3; read-out: TGI) is reported as > 100 µM. For the same molecule, the GI50 (SK-OV-3; read-out: pGI50 (converted)) was 10.7 µM, the CC50 (SK-OV-3; [18]) was > 100 µM and the TGI (SK-OV-3; read-out: pTGI (converted)) was > 100 µM. The GI50 (BT-549; read-out: GI50) was 4.58 µM, the CC50 (BT-549; [17]) was > 100 µM and the TGI (BT-549; read-out: TGI) was 48.8 µM. The GI50 (BT-549; read-out: pGI50 (converted)) was 4.68 µM, the CC50 (BT-549; [18]) was > 100 µM and the TGI (BT-549; read-out: pTGI (converted)) was 46.8 µM. It also gave a growth at 0.01 µM (NCI-H322M [1]) of 103%, a growth at 0.01 µM (NCI-H522 [2]) of 93% and a growth at 0.01 µM (SW-620 [3]) of 99%. The growth at 0.01 µM (LOX IMVI [4]) was 101%, the growth at 0.01 µM (SK-MEL-5) was 97% and the growth at 0.01 µM (UACC-257) was 92%. For the same molecule, the growth at 0.01 µM (UACC-62) was 90%, the growth at 0.01 µM (786-0 [5]) was 94% and the growth at 0.01 µM (PC-3) was 95%. For the same molecule, the growth at 0.01 µM (DU-145 [6]) was 104%, the growth at 0.01 µM (MDA-MB-231) was 98% and the growth at 0.01 µM (MDA-MB-468) was 91%. It also gave a growth at 0.1 µM (NCI-H322M [7]) of 90%, a growth at 0.1 µM (NCI-H460) of 100% and a growth at 0.1 µM (LOX IMVI [8]) of 102%. It also gave a growth at 0.1 µM (786-0 [9]) of 97%, a growth at 0.1 µM (A498) of 87% and a growth at 1 µM (COLO 205) of 97%. For the same molecule, the growth at 1 µM (SW-620 [10]) was 100%, the growth at 1 µM (SF-295 [11]) was 59% and the growth at 1 µM (SNB-19) was 105%. For the same molecule, the growth at 1 µM (SNB-75 [12]) was 72%, the growth at 1 µM (OVCAR-5) was 99% and the growth at 1 µM (CAKI-1) was 90%. For the same molecule, the growth at 1 µM (DU-145 [13]) was 93%, the growth at 100 µM (NCI-H522 [14]) was -18% and the growth at 100 µM (SF-295 [15]) was -38%. It also gave a growth at 100 µM (SNB-75 [16]) of 15%, a growth at 100 µM (M14) of 5% and a growth at 100 µM (OVCAR-4) of 15%. The growth at 100 µM (SN12C) was 17%.
